Results: patent US9428773B2, “Methods of producing acetoin and 2,3-butanediol using photosynthetic microorganisms” (The Regents of the University of California, priority 2012, dated 2016)

What was measured:
[1] = test system: S. elongatus; conditions: cited from earlier work
[2] = test system: S. elongatus
Description: (§1) Unless otherwise specified, S. elongatus strains were cultured in BG-11 medium (45) with the addition of 50 mM NaHCO3. Cells were grown at 30° C. with rotary shaking (100 rpm) and light (55 μE s^−1 m^−2) provided by four 86 cm 20 W fluorescent tubes 5 cm above the cell cultures. Cell growth was monitored by measuring OD730.
(§2) To evaluate acetoin and 23BD toxicity, we tested the growth of S. elongatus over 72 h in the presence of 23BD or acetoin.

[3] = test system: S. elongatus; test: growth of S. elongatus over 72 h in the presence of 23BD or acetoin (toxicity)
Description: as §1, §2

CC(C)CO [isobutanol]
concentration that prevents growth of S. elongatus [1]: 1 g/L

CC(C)C=O [isobutyraldehyde]
concentration that prevents growth of S. elongatus [1]: 1 g/L

CC(O)C(C)O (centres unmarked) [23BD, 2,3-butanediol]
growth of S. elongatus in the presence of 10 g/L 23BD [2]: barely inhibited
growth of S. elongatus in the presence of 30 g/L 23BD [2]: still exhibited growth
toxicity in S. elongatus (in words) [2]: low toxicity

CC(=O)C(C)O (centres unmarked) [acetoin]
decrease of growth of S. elongatus ([3]; 0.2 g/L acetoin, 72 h): approximately 50%
concentration at which growth of S. elongatus stopped ([3]; 72 h): 1.0 g/L
concentration above which toxic in S. elongatus ([3]; FIG. 2A): above 0.1 g/L
